According to patent USRE43038E1, “Compound having antitumor activity and process for producing the same” (Riken, priority 2002, dated 2011):
≈ marks a conversion by molar mass, not a printed value.

System: SH-SY5Y cells of human neuroblastoma
Assay: MTT growth inhibition of SH-SY5Y human neuroblastoma cells
Format: cell-based
Conditions: DMEM with 5% fetal bovine serum, 48 hours culture at 37° C., absorbance at 570 nm, read-out: 50% growth-inhibiting concentration
Method: SH-SY5Y cells of human neuroblastoma were cultured in DMEM medium (Dulbecco's modified Eagle medium) (containing 5% fetal bovine serum). Compound 1 of the present invention in a series of dilutions was added thereto and cultured at 37° C. under a 5% carbon dioxide atmosphere for 48 hours, followed by adding a MTT (3-(4,5-dimethyl-thiazol-2-yl)-2,5-diphenyl tetrazoliumbromide) reagent and further culturing for 2 to 4 hours. Absorbance at 570 nm was then measured to calculate the survival ratio.

`CC=C(/C=C(C)/C=C/CC/C=C(\C)C(=O)C12OC1C(C)(O)NC2=O)C(=O)OC(C)(C)C` (stereo not shown) [Compound 1, (3E,5E,9E)-tert-butyl-2-ethylidene-11-(4-hydroxy-4-methyl-2-oxo-6-oxa-3-aza-bicyclo[3.1.0]hex-1-yl)-4,10-dimethyl-11-oxounde ca-3,5,9-trienoate] was tested, and the IC50 was 0.4 µg/mL (≈ 0.927 µM).
